Literature values as cited in patent publication US8729014B2, “Specific HCV NS3 protease inhibitors” (RFS Pharma, LLC, priority 2010, dated 2014).

Test system: HepG2 cells
Conditions: HepG2 cells incubated with 10 μM; cited from earlier work

SMILES: O=c1[nH]c(=O)n([C@@H]2O[C@H](CO)[C@@H](O)[C@@H]2F)cc1I [fialuridine, 1,2′-deoxy-2′-fluoro-1-D-arabinofuranosly-5-iodo-uracil]
- morphological changes in mitochondria (electron micrographs): enlarged mitochondria with morphological changes consistent with mitochondrial dysfunction
